Source: patent publication US20130315843A1, “COMPOSITION FOR REDUCTION OF TRPA1 AND TRPV1 SENSATIONS” (priority 2012, published 2013)
Where a name gives a salt, the structure may show the parent alone. Read-outs that look alike come from different tables or passages of the source.

Columns and labels:
human TRPA1 [1] = biological target: T1, human TRPA1 (Homo sapiens, UniProt O75762); test: FLIPR Ca2+ assay, block of AITC activation of TRPA1; format: cell-based; set-up: expressed in transfected cells
T1 sequence (O75762 whole entry): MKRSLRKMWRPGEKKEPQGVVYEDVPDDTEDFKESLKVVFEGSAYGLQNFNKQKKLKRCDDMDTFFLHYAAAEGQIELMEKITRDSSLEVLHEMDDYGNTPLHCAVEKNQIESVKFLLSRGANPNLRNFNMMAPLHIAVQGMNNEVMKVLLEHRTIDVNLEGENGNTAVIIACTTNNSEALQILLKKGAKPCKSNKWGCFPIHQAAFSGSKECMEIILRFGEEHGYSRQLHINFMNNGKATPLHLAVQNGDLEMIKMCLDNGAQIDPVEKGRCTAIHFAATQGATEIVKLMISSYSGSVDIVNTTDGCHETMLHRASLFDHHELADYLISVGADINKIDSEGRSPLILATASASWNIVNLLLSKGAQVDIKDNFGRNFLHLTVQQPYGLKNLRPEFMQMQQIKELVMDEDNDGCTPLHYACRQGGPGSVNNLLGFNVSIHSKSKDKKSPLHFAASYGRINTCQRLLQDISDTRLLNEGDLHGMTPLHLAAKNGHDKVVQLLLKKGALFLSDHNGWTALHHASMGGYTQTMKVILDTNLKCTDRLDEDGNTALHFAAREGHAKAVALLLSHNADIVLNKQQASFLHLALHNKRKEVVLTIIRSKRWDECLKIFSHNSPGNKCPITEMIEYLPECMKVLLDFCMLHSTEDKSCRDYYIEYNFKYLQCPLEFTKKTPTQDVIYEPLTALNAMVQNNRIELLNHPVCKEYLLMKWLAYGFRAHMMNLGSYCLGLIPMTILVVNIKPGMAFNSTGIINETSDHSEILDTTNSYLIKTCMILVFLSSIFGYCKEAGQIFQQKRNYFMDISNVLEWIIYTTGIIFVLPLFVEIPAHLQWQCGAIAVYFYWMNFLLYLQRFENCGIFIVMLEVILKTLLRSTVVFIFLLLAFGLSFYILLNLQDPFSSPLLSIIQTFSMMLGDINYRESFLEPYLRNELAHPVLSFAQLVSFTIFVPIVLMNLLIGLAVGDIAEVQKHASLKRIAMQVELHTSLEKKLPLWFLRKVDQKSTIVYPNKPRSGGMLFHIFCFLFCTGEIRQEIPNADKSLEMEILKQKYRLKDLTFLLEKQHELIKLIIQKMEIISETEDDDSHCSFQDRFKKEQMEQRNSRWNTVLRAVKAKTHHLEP
Procedure: Intracellular Ca^++ levels were measured using cell based assays as described for EXAMPLES 1, 2, and 3.

human TRPA1 [2] = biological target: T1, human TRPA1; test: FLIPR Ca2+ assay, reduction of hydrogen peroxide activation of TRPA1; format: cell-based; set-up: expressed in transfected cells
Procedure: After centrifugation, a pellet of cells was formed in the bottom of the tube separating them from the supernatant solution.
The pelleted cells were re-suspended in 10 ml assay buffer and 90 μl aliquots (˜50,000 cells) per well delivered to a 96-well assay plate containing 10 μl of test compounds ([…]) or buffer control and incubated at room temperature for 30 minutes.

human TRPA1 [3] = biological target: T1, human TRPA1; test: FLIPR Ca2+ assay, reduction of L-Menthol activation of TRPA1; conditions: 100 μM antagonist vs 1 mM L-Menthol
human TRPV1 [4] = biological target: T2, human TRPV1 (Homo sapiens, UniProt Q8NER1); test: FLIPR Ca2+ assay, reduction of L-Menthol activation of TRPV1; conditions: for Average Ca2+ Counts / % Reduction of L-Menthol TRPV1 Activation: antagonist 100 μM against 1 mM L-Menthol; for inhibition at 100 µM: read-out: % Reduction of L-Menthol TRPV1 Activation
T2 sequence (Q8NER1 whole entry): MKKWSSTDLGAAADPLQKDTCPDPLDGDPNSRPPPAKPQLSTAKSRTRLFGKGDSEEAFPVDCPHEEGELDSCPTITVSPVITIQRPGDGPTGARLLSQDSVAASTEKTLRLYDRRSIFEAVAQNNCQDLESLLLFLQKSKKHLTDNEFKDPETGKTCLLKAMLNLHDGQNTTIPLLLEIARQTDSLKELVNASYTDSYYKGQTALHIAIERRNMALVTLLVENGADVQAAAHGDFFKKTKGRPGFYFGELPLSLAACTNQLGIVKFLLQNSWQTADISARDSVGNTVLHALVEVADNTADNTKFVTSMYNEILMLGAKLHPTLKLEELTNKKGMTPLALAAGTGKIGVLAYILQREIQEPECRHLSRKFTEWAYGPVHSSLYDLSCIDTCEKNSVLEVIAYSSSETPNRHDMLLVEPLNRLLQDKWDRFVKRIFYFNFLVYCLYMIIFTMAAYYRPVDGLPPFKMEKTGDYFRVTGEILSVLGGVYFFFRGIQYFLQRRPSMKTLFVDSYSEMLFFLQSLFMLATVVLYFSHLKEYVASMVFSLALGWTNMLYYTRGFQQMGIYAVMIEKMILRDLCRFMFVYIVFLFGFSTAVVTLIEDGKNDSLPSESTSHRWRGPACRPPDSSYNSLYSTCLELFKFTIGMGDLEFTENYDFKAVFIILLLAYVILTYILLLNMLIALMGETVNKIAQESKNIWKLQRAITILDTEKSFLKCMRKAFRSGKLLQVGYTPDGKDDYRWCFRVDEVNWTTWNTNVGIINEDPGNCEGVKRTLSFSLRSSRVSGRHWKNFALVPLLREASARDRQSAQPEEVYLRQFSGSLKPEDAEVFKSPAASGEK

human TRPV1 [5] = biological target: T2, human TRPV1; test: FLIPR Ca2+ assay, reduction of hydrogen peroxide activation of TRPV1; format: cell-based; set-up: expressed in transfected cells; conditions: antagonist 100 μM against 500 μM hydrogen peroxide
Procedure: Cells were detached with addition of 10 ml of PBS (phosphate buffered saline) by hand shaking gently. Cells were transferred to a 50 ml tube and centrifuged at 850 rpm for 3 minutes to remove PBS.
The pelleted cells were re-suspended in 10 ml assay buffer and 90 μl aliquots (˜50,000 cells) per well delivered to a 96-well assay plate containing 10 μl of test compounds (1 mM in assay buffer, […]) or buffer control and incubated at room temperature for 30 minutes.

[6] = 100 μM antagonist vs 500 μM hydrogen peroxide
[7] = compound 100 μM against 200 μM hydrogen peroxide, Sets 1-4
[8] = compound 100 μM against 200 μM hydrogen peroxide, Sets 1-4, read-out: % Reduction of Hydrogen Peroxide TRPA1 Activation
[9] = 400 μM antagonist vs 500 μM hydrogen peroxide

| Compound | Block of L-Menthol activation of TRPA1 (human TRPA1 [3]) | Average Ca2+ Counts (human TRPV1 [4]) | inhibition at 100 µM (human TRPV1 [4]) | further results |
| --- | --- | --- | --- | --- |
| CC(C)C=C(C=O)c1ccccc1 (single isomer, unassigned) [4-Methyl-2-phenyl-2 Pentenal (mixture of cis and trans isomers)] |  |  |  | Block of AITC activation of TRPA1 (human TRPA1 [1]; 400 μM antagonist): Block both H2O2 and AITC on TRPA1; Block of hydrogen peroxide activation of TRPA1 (human TRPA1 [2]): Block both H2O2 and AITC on TRPA1 |
| CC(S)CS (centres unmarked) [1,2-propanedithiol] |  |  |  | Block of AITC activation of TRPA1 (human TRPA1 [1]; 100 μM antagonist): Block both H2O2 and AITC on TRPA1; Block of hydrogen peroxide activation of TRPA1 (human TRPA1 [2]; [6]): Block both H2O2 and AITC on TRPA1; % Reduction of Hydrogen Peroxide TRPA1 Activation (human TRPA1 [2]; [7]): 68.8%; Average Ca++ Counts (human TRPA1 [2]; [7]): 2194.5 Counts |
| Cc1ccc(C=O)c(O)c1 [2-hydroxy-4-methylbenzaldehyde] |  |  |  | Block of AITC activation of TRPA1 (human TRPA1 [1]; 100 μM antagonist): Block both H2O2 and AITC on TRPA1; Block of hydrogen peroxide activation of TRPA1 (human TRPA1 [2]; [6]): Block both H2O2 and AITC on TRPA1; Average Ca++ Counts (human TRPA1 [2]; [7]): 3429.0 Counts; inhibition at 100 µM (human TRPA1 [2]; [8]): 51.3% |
| COc1nccnc1CC(C)C [2-isobutyl-3-methoxypyrazine] | BLOCK BOTH MENTHOL AND H2O2 ON TRPA1 | 4020.0 Counts | 37.2% | Block of hydrogen peroxide activation of TRPA1 (human TRPA1 [2]; [6]): BLOCK BOTH MENTHOL AND H2O2 ON TRPA1; Average Ca++ Counts (human TRPA1 [2]; [7]): 3067.5 Counts; inhibition at 100 µM (human TRPA1 [2]; [8]): 56.4% |
| C=CCc1cc(OC)c(O)c(OC)c1 [4-Allyl-2,6-dimethoxyphenol] |  |  |  | Block of AITC activation of TRPA1 (human TRPA1 [1]; 400 μM antagonist): Block both H2O2 and AITC on TRPA1; Block of hydrogen peroxide activation of TRPA1 (human TRPA1 [2]; [9]): Block both H2O2 and AITC on TRPA1; inhibition at 400 µM (human TRPA1 [2]; antagonist 400 μM against 200 μM hydrogen peroxide, read-out: % Reduction of Hydrogen Peroxide TRPA1 Activation): 54% |
| CCCC(=O)OCc1ccc(OC)cc1 [Anisyl Butyrate] |  |  |  | Block of AITC activation of TRPA1 (human TRPA1 [1]; 400 μM antagonist): Block both H2O2 and AITC on TRPA1; Block of hydrogen peroxide activation of TRPA1 (human TRPA1 [2]; [9]): Block both H2O2 and AITC on TRPA1; % Reduction of Hydrogen Peroxide TRPA1 Activation (human TRPA1 [2]; antagonist 400 μM against 200 μM hydrogen peroxide): 54% |
| CC1=CC(=O)[C@@H](C(C)C)CC1 [L-Piperitone] |  |  |  | % Reduction of Hydrogen Peroxide TRPV1 Activation (human TRPV1 [5]): 58% |
| C=CCOC(=O)CCC1CCCCC1 [allyl cyclohexanepropionate] | BLOCK BOTH MENTHOL AND H2O2 ON TRPA1 | 4895.5 Counts | 23.5% | Block of hydrogen peroxide activation of TRPA1 (human TRPA1 [2]; [6]): BLOCK BOTH MENTHOL AND H2O2 ON TRPA1; Average Ca++ Counts (human TRPA1 [2]; [7]): 3443.0 Counts; inhibition at 100 µM (human TRPA1 [2]; [8]): 51.1% |
| c1ccc2scnc2c1 [benzothiazole] |  |  |  | Block of AITC activation of TRPA1 (human TRPA1 [1]; 100 μM antagonist): Block both H2O2 and AITC on TRPA1; Average Ca++ Counts (human TRPA1 [2]; [7]): 5513.0 Counts; inhibition at 100 µM (human TRPA1 [2]; [8]): 48% |
| O=C(C=Cc1ccccc1)OCc1ccccc1 [benzyl cinnamate] |  |  |  | Block of AITC activation of TRPA1 (human TRPA1 [1]; 100 μM antagonist): Block both H2O2 and AITC on TRPA1; Block of hydrogen peroxide activation of TRPA1 (human TRPA1 [2]; [6]): Block both H2O2 and AITC on TRPA1; Average Ca++ Counts (human TRPA1 [2]; [7]): 4828.5 Counts; inhibition at 100 µM (human TRPA1 [2]; [8]): 54.4% |
| CCOC(=O)CC1(C)OCCO1 [ethyl acetoacetate ethylene ketal] |  |  |  | Block of AITC activation of TRPA1 (human TRPA1 [1]; 100 μM antagonist): Block both H2O2 and AITC on TRPA1; Block of hydrogen peroxide activation of TRPA1 (human TRPA1 [2]; [6]): Block both H2O2 and AITC on TRPA1; Average Ca++ Counts (human TRPA1 [2]; [7]): 3298.5 Counts; inhibition at 100 µM (human TRPA1 [2]; [8]): 53.2% |
| CCOC(=O)CC(C)=O [ethyl acetoacetate] |  |  |  | Block of AITC activation of TRPA1 (human TRPA1 [1]; 100 μM antagonist): Block both H2O2 and AITC on TRPA1; Block of hydrogen peroxide activation of TRPA1 (human TRPA1 [2]; [6]): Block both H2O2 and AITC on TRPA1; Average Ca++ Counts (human TRPA1 [2]; [7]): 3314.5 Counts; inhibition at 100 µM (human TRPA1 [2]; [8]): 43.6% |
| CCCOC(=O)CCCCC(=O)OCCC [hexanedioic acid, dipropyl ester] | BLOCK ONLY MENTHOL/TRPA1 | 2964.0 Counts | 26.6% |  |
| CCCCCC(=O)OCC(C)C [isobutyl hexanoate] | BLOCK ONLY MENTHOL/TRPA1 | 3443.5 Counts | 25.8% |  |
| CC(C)CCOC=O [isopentyl formate] | BLOCK ONLY MENTHOL/TRPA1 | 1451.7 Counts | 24.8% |  |
| C/C=C(\C)C(=O)OC(C)C [isopropyl tiglate] | BLOCK ONLY MENTHOL/TRPA1 | 4497.5 Counts | 29.7% |  |

| Compound | Block of L-Menthol activation of TRPA1 (human TRPA1 [3]) | Average Ca2+ Counts (human TRPV1 [4]) | inhibition at 100 µM (human TRPV1 [4]) | further results |
| --- | --- | --- | --- | --- |
| COC(=O)c1ccccc1NC(C)=O [methyl 2-(acetylamino)benzoate] | BLOCK ONLY MENTHOL/TRPA1 | 1178.3 Counts | 37.4% |  |
| CCCC(C)C(=O)OC (centres unmarked) [methyl 2-methylpentanoate] | BLOCK ONLY MENTHOL/TRPA1 | 1529.3 Counts | 21.2% |  |
| COC(=O)CCSC [methyl 3-(methylthio)propionate] | BLOCK ONLY MENTHOL/TRPA1 | 998.7 Counts | 45.7% |  |
| CCCCCCCCSC [methyl n-octyl sulfide] | BLOCK ONLY MENTHOL/TRPA1 | 1120.3 Counts | 40.1% |  |
| COC(=O)c1cccnc1 [methyl nicotinate] | BLOCK ONLY MENTHOL/TRPA1 | 1483.7 Counts | 23.3% |  |
| COc1ccccc1C [o-methylanisole] | BLOCK ONLY MENTHOL/TRPA1 | 1107.3 Counts | 40.7% |  |
| CCCCCCCC=O [octanal] | BLOCK ONLY MENTHOL/TRPA1 | 2759.0 Counts | 31.6% |  |
| C1CNCCN1 [piperazine] | BLOCK BOTH MENTHOL AND H2O2 ON TRPA1 | 3405.0 Counts | 46.8% | Block of hydrogen peroxide activation of TRPA1 (human TRPA1 [2]; [6]): BLOCK BOTH MENTHOL AND H2O2 ON TRPA1; Average Ca++ Counts (human TRPA1 [2]; [7]): 2815.5 Counts; inhibition at 100 µM (human TRPA1 [2]; [8]): 60% |
| CCC/C=C/COC(=O)CC [propionic acid trans-2-hexen-1-yl ester] | BLOCK ONLY MENTHOL/TRPA1 | 1128.3 Counts | 39.7% |  |
| CCCOC(=O)C(C)=O [propyl pyruvate] | BLOCK ONLY MENTHOL/TRPA1 | 2386.5 Counts | 40.9% |  |
| CC(=O)C=O [pyruvic aldehyde] | BLOCK ONLY MENTHOL/TRPA1 | 1504.0 Counts |  | % Reduction of L-Menthol TRPV1 Activation (human TRPV1 [4]): 22.3% |
| C=C[C@H]1C[N@@]2CC[C@H]1C[C@H]2[C@H](O)c1ccnc2ccc(OC)cc12 [quinine hydrochloride dihydrate] | BLOCK ONLY MENTHOL/TRPA1 | 1505.3 Counts | 22.3% |  |
| CCC(C)SSC(C)CC (centres unmarked) [sec-butyl disulfide] | BLOCK ONLY MENTHOL/TRPA1 | 3652.0 Counts | 21.3% |  |
| CC(=O)OCC1CCCO1 (centres unmarked) [tetrahydrofurfuryl acetate] | BLOCK ONLY MENTHOL/TRPA1 | 1269.3 Counts | 33.2% |  |
| CCC/C=C/COC(C)=O [trans-2-hexenyl acetate] | BLOCK ONLY MENTHOL/TRPA1 | 1119.0 Counts | 40.2% |  |
| iron naphthenate | BLOCK ONLY MENTHOL/TRPA1 | 2748.5 Counts |  | % Reduction of L-Menthol TRPV1 Activation (human TRPV1 [4]): 31.9% |
